# Test results: BindingDB's records for doi:10.1021/cb400526n (Academy of Sciences of The Czech Republic, 2013)
# Target: Aldo-keto reductase family 1 member B1 (Homo sapiens, UniProt P15121)
# Experiment: IC50 Activity Assays
# Conditions: pH 7; 25 °C
# Experimental: The final reaction volume was 500uL per reaction. All compounds were dissolved in dimethyl sulphoxide, and the corresponding solution was added to the cell and incubated for 5 min at 25 degrees Celsius prior to the addition of the substrate. The reaction was initiated by the addition of 1mM glyceraldehyde, and the decrease in optical density at 340nm was monitored for 3 min at 25 degrees Celsius in a UV-vis spectrophotometer.
row,IC50 [nM],SMILES
1,1190,O=C(O)COc1cc(Cl)ccc1C(=O)NCc1c(F)cc(Br)cc1F [MK408]
2,190,O=C(O)COc1cc(Cl)ccc1C(=O)NCc1ccc(I)cc1F [MK315]
3,1360,O=C(O)COc1cc(Cl)ccc1C(=O)NCc1c(F)cc(I)cc1F [MK409]

# Continued, compound first:
row,SMILES,IC50 [nM]
1,O=C(O)COc1cc(Cl)ccc1C(=O)NCc1c(F)c(F)c(Br)c(F)c1F [MK319],300
2,O=C(O)COc1cc(Cl)ccc1C(=O)NCc1ccc(Br)cc1 [MK181],710
3,O=C(O)COc1cc(Cl)ccc1C(=O)NCc1ccc(I)cc1 [MK257],1900
4,O=C(O)COc1cc(Cl)ccc1C(=O)NCc1ccc(Br)cc1F [IDD388],400
